Legend:
[1] = Thermostability, rigid co-polymer (e), ventilated oven 210° C.; settings: 0.3 part
Description: (§1) The study of the static thermostability of vinyl co-polymers was carried out according to the GARDNER method described above and, also in a more detailed manner in British Patent No. 1,489,685.
(e) Rigid co-polymer vinyl chloride-vinylidene chloride
(§2) The following compound was prepared:
The sheets were heated in a ventilated oven at 210° C. and the following results were obtained: […]

[2] = Comparison with stabilizer G1, rigid co-polymer, 0.5 part, 185° C.
Excerpt: (b) Comparison with stabilizer G1
Stabilizer G1 is a mixture of 1,4-butanediol-β-aminocrotonate and of β-aminocrotonate of alcohols containing from 16 to 18 carbon atoms.

[3] = Static thermostability (GARDNER method), rigid PVC sheets, 185° C., equimolecular quantities; settings: 1.55×10^-3 mol
Description: This study was carried out according to the GARDNER method, described in British Pat. No. 1,489,685.
The reference substance was 2-phenyl-indole, a well-known and widely used stabilizer.
The stabilizer (dihydropyridine or 2-phenyl-indole) and the other usual ingredients were mixed with powdered vinyl resins and the mixtures were calendered at a temperature of 160° C. to give rigid sheets.
The sheets were then heated in a thermostated oven (185° C. or 210° C.) for different intervals of time until incipient carbonization.
The coloration of the samples was compared to a standard scale of coloration, known as the GARDNER scale and was expressed in terms of the reference figures of the GARDNER scale.
This study was carried out with the following resin:
Polyvinyl chloride resin
SL 2016 is a solution of zinc-2-ethyl-hexanoate in a mixture of hydrocarbons boiling between 158° C. and 184° C.
Finally, a trail was performed at 185° C., with resins containing equimolecular quantities of the dihydropyridines or of 2-phenyl-indole, namely 1.55×10^-3 mol. In this case too, the samples were removed from the oven every 6 minutes over a period of 24 minutes and then every 3 minutes until the 42nd minute (or until carbonization).

[4] = Thermostability, rigid co-polymer (d), ventilated oven 210° C.; settings: 0.3 part
Description: as §1
(d) Rigid co-polymer vinyl chloride-vinylidene chloride
as §2
The sheets were heated in a ventilated oven at 210° C.

[5] = Comparison with 2-phenyl-indole, vinyl chloride-vinyl acetate co-polymer, 185° C.; settings: 0.3 part
Description: (c) Comparison with 2-phenyl-indole
A comparative test was made using the following compound:
The sheets were heated in a ventilated oven at 185° C. and the following results were obtained: […]

Question: With C=CCOC(=O)C1=C(C)NC(C)=C(C(=O)OCC=C)C1 [Compound 1, 2,6-Dimethyl-3,5-dicarboallyloxy-1,4-dihydropyridine] as the compound, how does the “coloration, GARDNER scale” value ([1]; 0 min) read?
Answer: Its value is 1.

Question: What about the “coloration, GARDNER scale” value ([1]; 3 min) of the same compound?
Answer: The value was 1.

Question: And the “coloration, GARDNER scale” value ([1]; 6 min)?
Answer: The value was 2.

Question: What about the “coloration, GARDNER scale” value ([1]; 9 min) of the same compound?
Answer: Its value is 4.

Question: What about the “coloration, GARDNER scale” value ([1]; 12 min) of the same compound?
Answer: Its value is 10.

Question: What about the “coloration, GARDNER scale” value ([2]; 0 min) of the same compound?
Answer: Its value is 1.

Question: What about the “coloration, GARDNER scale” value ([2]; 2 min) of the same compound?
Answer: Its value is 1.

Question: And the “coloration, GARDNER scale” value ([2]; 4 min)?
Answer: Its value is 2.

Question: What about the “coloration, GARDNER scale” value ([2]; 6 min) of the same compound?
Answer: Its value is 6.

Question: And the “coloration, GARDNER scale” value ([2]; 8 min)?
Answer: Its value is 10.

Question: What about the “coloration, GARDNER scale” value ([2]; 10 min) of the same compound?
Answer: Its value is 13.

Question: What about the “coloration, GARDNER scale” value ([2]; 12 min) of the same compound?
Answer: Its value is 17.

Question: For CC1=C(C(=O)OCc2ccccc2)CC(C(=O)OCc2ccccc2)=C(C)N1 [Compound 21, 2,6-Dimethyl-3,5-dicarbobenzyloxy-1,4-dihydropyridine], which “coloration, GARDNER scale” value ([3]; 0 min) is on record?
Answer: The value was 1.

Question: And the “coloration, GARDNER scale” value ([3]; 6 min)?
Answer: The value was 1.

Question: And the “coloration, GARDNER scale” value ([3]; 12 min)?
Answer: The value was 1.

Question: What about the “coloration, GARDNER scale” value ([3]; 18 min) of the same compound?
Answer: Its value is 4.

Question: And the “coloration, GARDNER scale” value ([3]; 24 min)?
Answer: The value was 6.

Question: What about the “coloration, GARDNER scale” value ([3]; 27 min) of the same compound?
Answer: The value was 8.

Question: And the “coloration, GARDNER scale” value ([3]; 30 min)?
Answer: Its value is 11.

Question: And the “coloration, GARDNER scale” value ([3]; 33 min)?
Answer: The value was 15.

Question: What about the “coloration, GARDNER scale” value ([3]; 36 min) of the same compound?
Answer: The value was “Burnt”.

Question: And the “coloration, GARDNER scale” value ([4]; 0 min)?
Answer: The value was 1.5.

Question: What about the “coloration, GARDNER scale” value ([4]; 3 min) of the same compound?
Answer: The value was 2.

Question: And the “coloration, GARDNER scale” value ([4]; 6 min)?
Answer: Its value is 2.

Question: And the “coloration, GARDNER scale” value ([4]; 9 min)?
Answer: Its value is 3.

Question: What about the “coloration, GARDNER scale” value ([4]; 12 min) of the same compound?
Answer: Its value is 7.

Question: And the “coloration, GARDNER scale” value ([4]; 15 min)?
Answer: The value was 15.

Question: What about the “coloration, GARDNER scale” value ([5]; 0 min) of the same compound?
Answer: Its value is 1.

Question: What about the “coloration, GARDNER scale” value ([5]; 2 min) of the same compound?
Answer: Its value is 1.

Question: And the “coloration, GARDNER scale” value ([5]; 4 min)?
Answer: Its value is 2.

Question: And the “coloration, GARDNER scale” value ([5]; 6 min)?
Answer: The value was 3.

Question: And the “coloration, GARDNER scale” value ([5]; 8 min)?
Answer: The value was 7.

Question: And the “coloration, GARDNER scale” value ([5]; 10 min)?
Answer: The value was 10.

Question: What about the “coloration, GARDNER scale” value ([5]; 12 min) of the same compound?
Answer: The value was 12.

Question: And the “coloration, GARDNER scale” value ([5]; 14 min)?
Answer: Its value is 16.
